#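 In this assay, cells in 96-well plates receive the compound at five concentrations for 48 hours. Endpoints are linearly interpolated between the surrounding concentrations. The concentration for 50% growth inhibition is given as GI50. TGI: concentration producing complete growth inhibition.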
# Assays:
# Test in all cases: growth of human tumour cells (NCI), 48 h
# 786-0 renal = test system: 786-0 renal
# CAKI-1 renal = test system: CAKI-1 renal
# DU-145 prostate = test system: DU-145 prostate
# HCT-116 colon = test system: HCT-116 colon
# KM12 colon = test system: KM12 colon
# M14 melanoma = test system: M14 melanoma
# MOLT-4 leukemia = test system: MOLT-4 leukemia
# NCI-H522 lung = test system: NCI-H522 lung
# RPMI-8226 leukemia = test system: RPMI-8226 leukemia
# RXF 393 renal = test system: RXF 393 renal
# SR leukemia = test system: SR leukemia
# U251 CNS = test system: U251 CNS
# HS 578T breast = test system: HS 578T breast
Compound,TGI (786-0 renal) [µM],TGI (CAKI-1 renal) [µM],TGI (DU-145 prostate) [µM],TGI (HCT-116 colon) [µM],TGI (KM12 colon) [µM],TGI (M14 melanoma) [µM],TGI (MOLT-4 leukemia) [µM],TGI (NCI-H522 lung) [µM],TGI (RPMI-8226 leukemia) [µM],TGI (RXF 393 renal) [µM],TGI (SR leukemia) [µM],TGI (U251 CNS) [µM],GI50 (CAKI-1 renal) [µM],GI50 (DU-145 prostate) [µM],GI50 (KM12 colon) [µM],GI50 (MOLT-4 leukemia) [µM],GI50 (RXF 393 renal) [µM],GI50 (SR leukemia) [µM],GI50 (U251 CNS) [µM],TGI (HS 578T breast) [µM]
O=C1O/C(=C\C=C\CO)C=C1/C=C/CO,33.7,28.3,50.7,29.9,> 100,43.1,> 100,22.5,47.6,38.3,71.4,> 100,,,,,,,,
CCCCCCCCc1ccc(CCC(N)(CO)CO)cc1,,6.56,3.24,,3.44,,3.44,,,2.85,4.28,3.32,2.64,1.81,1.93,1.64,1.52,1.39,1.8,
N=C(N)SCCN1CCCCC1,51.5,72.9,64.7,> 100,> 100,50.3,58,24.3,40.2,32.6,60.1,44,,,,,,,,58.2
NC(=S)N/N=C1\CC(c2ccccc2)Nc2ccccc21 (configuration not stated),,> 100,,,,> 100,73.2,99.2,> 100,,,> 100,,,,,,,,
C[N+]1(c2ccccc2)C=C(c2ccccc2)SC1=S (configuration not stated),> 100,> 100,> 100,> 100,> 100,> 100,,> 100,> 100,> 100,> 100,> 100,,,,,,,,> 100
CC1(Cc2cc3c(cc2C2(c4ccc([N+](=O)[O-])cc4)OCCO2)OCO3)OCCO1,> 100,> 100,> 100,> 100,> 100,> 100,> 100,82.3,78.4,> 100,,> 100,,,,,,,,> 100
Cc1ncc(COP(=O)(O)O)c(C)c1O,> 100,> 100,,> 100,> 100,> 100,> 100,> 100,,> 100,> 100,> 100,,,,,,,,> 100
CCOc1ccc(N=Nc2ccc(-c3ccc(N=Nc4c(O)ccc5cc(S(=O)(=O)O)cc(S(=O)(=O)O)c45)cc3)cc2)cc1,> 100,> 100,,> 100,> 100,> 100,> 100,> 100,> 100,> 100,> 100,> 100,,,,,,,,> 100
Cc1ccccc1C1CC(=O)CC(c2ccccc2C)C12C(=O)NC(=S)NC2=O (configuration not stated),> 100,> 100,> 100,49,53.6,91.8,> 100,,38.6,38.8,> 100,> 100,,,,,,,,97.2
CC(=O)[C@]12OC(=O)C3=C1[C@H](CC[C@@H]3C)[C@@H](C)C[C@H]2C=C(C)C,15.7,13,15.4,13.4,14.9,16.7,18.6,11.4,15.5,,16.8,14.9,,,,,,,,18.1
Cc1cccc(/C=C2/C(=O)Nc3ccccc32)n1,27.3,37.8,32.9,26.2,35.4,31.2,44.5,34.7,46.5,27.2,7.3,> 65.9,,,,,,2.11,,> 80.1
O=C(/C=C/c1ccc(O)cc1)c1cc(-c2cc(CCC(=O)c3ccc(O)cc3O)ccc2O)c(O)cc1O,> 50,> 50,> 50,> 50,> 50,> 50,> 50,> 50,> 50,> 50,29.5,> 50,,,,,,,,> 50
C=C(C[C@@H](O)[C@H](C)NC(=O)OCc1ccccc1)C(=O)OC(C)(C)C,,> 100,> 100,> 100,> 100,> 100,> 100,> 100,> 100,,> 100,> 100,,,,,,,,> 100
CC(=O)c1c(C)cc2cccc(OC3OC(CO)C(O)C(O)C3O)c2c1O (configuration not stated) (tested in a mixture with another compound),> 100,> 100,> 100,> 100,> 100,> 100,> 100,> 100,> 100,> 100,> 100,> 100,,,,,,,,> 100
CC(=O)Oc1cc(/C=C/c2ccc(O)cc2)cc(OC(C)=O)c1,> 100,> 100,> 100,> 100,> 100,> 100,63.2,> 100,25.4,> 100,48.7,> 100,,,,,,,,> 100
CC(=O)C(N=NC1CCC(S(=O)(=O)NB2N=CS2)CC1)C(=O)Nc1ccccc1C (configuration not stated),,46.9,,26.3,30.1,35.5,> 100,29.6,> 100,35.9,> 100,26.6,,,,,,,,
O=S(=O)([O-])[O-].[Fe+2].[OH2+]c1c(Cl)cc(Cl)cc1/C=N/Nc1ccccn1,1.92,,,2.63,2.75,7.44,2.94,1.92,6.12,1.9,4.03,2.74,,,,,,,,
Nc1ccc(S(=O)(=O)NCCS(=O)(=O)O)cc1,> 100,> 100,> 100,> 100,> 100,> 100,> 100,> 100,,> 100,> 100,> 100,,,,,,,,> 100
